Paper PMC10979003, “Development and crystal structures of a potent second-generation dual degrader of BCL-2 and BCL-xL” (Nature Communications, 2024)

Legend:
Jurkat cells = assay: TMT-based proteomics in Jurkat cells; type: cell-based, human; settings: 100 nM, 8 h
Method: To further assess the cellular selectivity of 753b and WH244 for BCL-xL/BCL-2 proteins, multiplexed tandem mass tag (TMT) labeling mass spectrometry proteomic experiments were performed to monitor protein levels in an unbiased fashion. Jurkat cells were treated in triplicate with DMSO, 100 nM 753b or 100 nM WH244 for 8 h (Supplementary Fig. 10b). […] To assess BCL-xL and BCL-2 degradation, we utilized western blotting with the same samples, and successfully verified the degradation of both BCL-xL and BCL-2 proteins induced by 753b and WH244, respectively (Supplementary Fig. 10c). We speculate that these apparently contradictory results may be attributable to some of the limitations of TMT technology, where low TMT-labeling efficiency for some proteins and peptides, can lead to inability to detect these proteins by TMT-based proteomics analysis. This limitation has been observed in several other reported PROTAC studies[52],[53]. […]
Proteins were identified and MS3 reporter ions quantified using MaxQuant (version 2.2.0.0; Max Planck Institute) against the Homo sapiens UniprotKB database (March 2023) with a parent ion tolerance of 3 ppm, a fragment ion tolerance of 0.5 Da, and a reporter ion tolerance of 0.003 Da. […] Protein TMT MS3 reporter ion intensity values were assessed for quality using ProteiNorm for a systematic evaluation of normalization methods. […]

WT BCL-xL = target: T1, WT BCL-xL (Homo sapiens, UniProt Q07817); assay: AlphaScreen displacement binary binding assay, WT BCL-xL; settings: for Kd: Supplementary Fig. 11
T1 construct: BCL-xL (aa 2-212) and BCL-2 (aa 1-207) transformed cells were grown in LB broth; SMT3 (N); made in house; host or cells: E. coli BL21 (DE3) codon plus
T1 sequence (Q07817 2-212): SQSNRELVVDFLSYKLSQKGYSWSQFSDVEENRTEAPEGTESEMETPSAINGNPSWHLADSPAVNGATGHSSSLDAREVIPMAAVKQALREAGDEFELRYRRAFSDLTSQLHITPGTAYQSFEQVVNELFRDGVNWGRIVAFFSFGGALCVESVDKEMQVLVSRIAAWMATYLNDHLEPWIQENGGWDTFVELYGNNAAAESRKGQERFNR
Method: To test the binary/ternary binding affinities of compounds to BCL-2/BCL-xL, AlphaScreen displacement binding assay was performed to test the capabilities of testing compounds to displace a Biotin-tagged Bim (Biotin-[…]) or Bad (Biotin-[…]) from BCL-2 or BCL-xL for BCL-2 and BCL-xL binding affinities, respectively. All reagents were diluted in assay buffer of 25 mM HEPES, pH 7.5, 150 mM NaCl, 0.1% BSA, and 0.005% tween 20 prior incubation. To a 96-well PCR plate (VWR, Cat. No. 82006-636) was added 10 μL Biotin-tagged Bim (15 nM for WT or 50 nM for mutants) or Bad (15 nM for WT or 50 nM for mutants), 10 μL series diluted compounds solution (2 or 3 or 4× dilution), and 10 μL self-made 6×His tagged BCL-2 WT or mutants (25 nM WT or 50 nM mutants) or 10 μL self-made BCL-xL WT and mutants (10 nM WT or 50 nM mutants). After incubating at room temperature for 30 min, 5 µL of 160 μg/mL of anti-6×His acceptor beads (PerkinElmer, Cat. No. AL128M) was added and the mixture was incubated at room temperature for 15 min. 5 µL of 160 μg/mL of streptavidin donor beads (PerkinElmer, 6760002) was then added under subdued light and the mixture was incubated at dark for 30 min before being transferred to two adjacent wells (17 µL each) of 384-well white OptiPlate (PerkinElmer, Cat. No. 6008280). The luminescence signal was detected on a Biotek’s Synergy Neo2 multimode plate reader installed with an AphaScreen filter cube. The Ki values of each compounds were calculated by fitting data into the “Binding-competitive, One site-Fit Ki” function in GraphPad Prism (9.2.0) based on concentrations of Biotin–peptide used and experimentally determined Kd values of each 6×His protein &&&and Biotin–Peptide pair.

Ki (WT BCL-xL; mean ± s.d., n=3) [nM] | SMILES | Proteins significantly down-regulated among approximately 6000 identified (Jurkat cells) | Kd (WT BCL-xL) [nM]
21.9 ± 7.3 | Cc1ncsc1-c1ccc(C(C)NC(=O)C2CC(O)CN2C(=O)C(NC(=O)CCCCCCC(=O)N2CCN(CC3(C)CCC(c4ccc(Cl)cc4)=C(CN4CCN(c5ccc(C(=O)NS(=O)(=O)c6ccc(NC(CCN7CCOCC7)CSc7ccccc7)c(S(=O)(=O)C(F)(F)F)c6)cc5)CC4)C3)CC2)C(C)(C)C)cc1 (centres unmarked) [753b] | none of which exhibited significant down-regulation | ~28
– | Cc1ncsc1-c1ccc([C@H](C)NC(=O)[C@@H]2C[C@@H](O)CN2C(=O)[C@@H](NC(=O)CN2CCN(CC(=O)N3CCN(C[C@]4(C)CCC(c5ccc(Cl)cc5)=C(CN5CCN(c6ccc(C(=O)NS(=O)(=O)c7ccc(N[C@H](CCN8C[C@@H]9C[C@H]8CO9)CSc8ccccc8)c(S(=O)(=O)C(F)(F)F)c7)cc6)CC5)C4)CC3)CC2)C(C)(C)C)cc1 [WH244] | none of which exhibited significant down-regulation | ~6.14
